Measurements from patent publication US20230157952A1, “METHOD FOR IMPROVING THE STABILITY OF A PHARMACEUTICAL COMPOSITION COMPRISING A HIGH PENETRATION DRUG, AND THE PHARMACEUTICAL COMPOSITION OBTAINED THEREFROM” (Techfields Inc., priority 2020, published 2023).

Test: Effect of temperature (and pH) on the stability of the solution (purity)
Assay type: physicochemical
Details: 7% solution in water

CCN(CC)CCOC(=O)CC1=C(C)C(=Cc2ccc([S+](C)[O-])cc2)c2ccc(F)cc21.Cl (centres unmarked)
Purity(%) at day 0 (pH 1.0, day 0): 97.2 ± 0.3% | Purity(%) at day 21 (5° C.) (pH 1.0, day 21, 5° C.): 91.1 ± 0.4% | Purity(%) at day 21 (25° C.) (pH 1.0, day 21, 25° C.): 67.5 ± 0.4% | Purity(%) at day 21 (40° C.) (pH 1.0, day 21, 40° C.): 10.4 ± 0.4% | Purity (%) at day 21 (60° C.) (pH 1.0, day 21, 60° C.): 0% | Purity(%) at day 0 (pH 2.0, day 0): 97.3 ± 0.3% | Purity(%) at day 21 (5° C.) (pH 2.0, day 21, 5° C.): 94.7 ± 0.3% | Purity(%) at day 21 (25° C.) (pH 2.0, day 21, 25° C.): 81.1 ± 0.3% | Purity(%) at day 21 (40° C.) (pH 2.0, day 21, 40° C.): 23.6 ± 0.3% | Purity (%) at day 21 (60° C.) (pH 2.0, day 21, 60° C.): 0% | Purity(%) at day 0 (pH 3.0, day 0): 97.6 ± 0.2% | Purity(%) at day 21 (5° C.) (pH 3.0, day 21, 5° C.): 96.3 ± 0.2% | Purity(%) at day 21 (25° C.) (pH 3.0, day 21, 25° C.): 92.2 ± 0.2% | Purity(%) at day 21 (40° C.) (pH 3.0, day 21, 40° C.): 45.7 ± 0.3% | Purity (%) at day 21 (60° C.) (pH 3.0, day 21, 60° C.): 0% | Purity(%) at day 0 (pH 3.7, day 0): 97.6 ± 0.2% | Purity(%) at day 21 (5° C.) (pH 3.7, day 21, 5° C.): 97.3 ± 0.2% | Purity(%) at day 21 (25° C.) (pH 3.7, day 21, 25° C.): 96.8 ± 0.2% | Purity(%) at day 21 (40° C.) (pH 3.7, day 21, 40° C.): 55.5 ± 0.2% | Purity (%) at day 21 (60° C.) (pH 3.7, day 21, 60° C.): 13.5 ± 0.3% | Purity(%) at day 0 (pH 4.0, day 0): 97.9 ± 0.1% | Purity(%) at day 21 (5° C.) (pH 4.0, day 21, 5° C.): 97.4 ± 0.1% | Purity(%) at day 21 (25° C.) (pH 4.0, day 21, 25° C.): 96.9 ± 0.1% | Purity(%) at day 21 (40° C.) (pH 4.0, day 21, 40° C.): 60.3 ± 0.2% | Purity (%) at day 21 (60° C.) (pH 4.0, day 21, 60° C.): 19.7 ± 0.3% | Purity(%) at day 0 (pH 4.3, day 0): 97.7 ± 0.2% | Purity(%) at day 21 (5° C.) (pH 4.3, day 21, 5° C.): 97.3 ± 0.1% | Purity(%) at day 21 (25° C.) (pH 4.3, day 21, 25° C.): 96.7 ± 0.1% | Purity(%) at day 21 (40° C.) (pH 4.3, day 21, 40° C.): 63.1 ± 0.1% | Purity (%) at day 21 (60° C.) (pH 4.3, day 21, 60° C.): 16.8 ± 0.2% | Purity(%) at day 0 (pH 4.6, day 0): 97.8 ± 0.1% | Purity(%) at day 21 (5° C.) (pH 4.6, day 21, 5° C.): 97.3 ± 0.2% | Purity(%) at day 21 (25° C.) (pH 4.6, day 21, 25° C.): 95.9 ± 0.2% | Purity(%) at day 21 (40° C.) (pH 4.6, day 21, 40° C.): 57.3 ± 0.2% | Purity (%) at day 21 (60° C.) (pH 4.6, day 21, 60° C.): 15.5 ± 0.3% | Purity(%) at day 0 (pH 5.0, day 0): 97.7 ± 0.3% | Purity(%) at day 21 (5° C.) (pH 5.0, day 21, 5° C.): 96.1 ± 0.2% | Purity(%) at day 21 (25° C.) (pH 5.0, day 21, 25° C.): 93.9 ± 0.3% | Purity(%) at day 21 (40° C.) (pH 5.0, day 21, 40° C.): 38.9 ± 0.3% | Purity (%) at day 21 (60° C.) (pH 5.0, day 21, 60° C.): 1.5 ± 0.3% | Purity(%) at day 0 (pH 6.0, day 0): 97.5 ± 0.3% | Purity(%) at day 21 (5° C.) (pH 6.0, day 21, 5° C.): 94.4 ± 0.3% | Purity(%) at day 21 (25° C.) (pH 6.0, day 21, 25° C.): 88.9 ± 0.2% | Purity(%) at day 21 (40° C.) (pH 6.0, day 21, 40° C.): 21.6 ± 0.2% | Purity (%) at day 21 (60° C.) (pH 6.0, day 21, 60° C.): 0% | Purity(%) at day 0 (pH 7.0, day 0): 97.3 ± 0.3% | Purity(%) at day 21 (5° C.) (pH 7.0, day 21, 5° C.): 89.0 ± 0.3% | Purity(%) at day 21 (25° C.) (pH 7.0, day 21, 25° C.): 59.8 ± 0.3% | Purity(%) at day 21 (40° C.) (pH 7.0, day 21, 40° C.): 5.4 ± 0.3% | Purity (%) at day 21 (60° C.) (pH 7.0, day 21, 60° C.): 0% | Purity(%) at day 0 (pH 8.0, day 0): 96.9 ± 0.4% | Purity(%) at day 21 (5° C.) (pH 8.0, day 21, 5° C.): 77.1 ± 0.3% | Purity(%) at day 21 (25° C.) (pH 8.0, day 21, 25° C.): 44.5 ± 0.4% | Purity(%) at day 21 (40° C.) (pH 8.0, day 21, 40° C.): 0% | Purity (%) at day 21 (60° C.) (pH 8.0, day 21, 60° C.): 0%

CCN(CC)CCOC(=O)COc1nn(Cc2ccccc2)c2ccccc12.Cl [2-(diethylamino)ethyl [(1-benzyl-1H-indazol-3-yl)oxy]acetate•HCl]
Stability of the solution at a temperature higher than 40° C. and a pH lower than 3 or greater than 6: not stable
